Like-named read-outs stand apart in the source and are kept apart here. Blank lines part the entries; values can stand above or below the molecule they belong to.
How the values were obtained:
mushroom tyrosinase [1] = molecular target: mushroom tyrosinase (Agaricus bisporus, UniProt C7FF04); assay: Mushroom tyrosinase inhibitory assay (o-diphenolase activity, L-DOPA as substrate); format: biochemical; details: for inhibition at 200 µM: read-out: Mushroom Tyrosinase Inhibition % Inhibition (at 200 μM);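 for all read-outs here: enzyme and test sample preincubated 10 min at 25 °C in pH 6.8 phosphate buffer, 50% DMSO vehicle as control, enzyme-free mixture as blank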
Chain of mushroom tyrosinase (Agaricus bisporus, UniProt C7FF04) (G1K3P4 entry or part of it): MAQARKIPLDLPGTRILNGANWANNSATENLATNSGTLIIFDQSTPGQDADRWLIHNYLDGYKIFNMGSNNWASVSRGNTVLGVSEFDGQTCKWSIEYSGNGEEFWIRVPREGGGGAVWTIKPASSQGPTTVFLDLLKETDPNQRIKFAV
Chain of mushroom tyrosinase (Agaricus bisporus, UniProt C7FF04) (C7FF04 2-392): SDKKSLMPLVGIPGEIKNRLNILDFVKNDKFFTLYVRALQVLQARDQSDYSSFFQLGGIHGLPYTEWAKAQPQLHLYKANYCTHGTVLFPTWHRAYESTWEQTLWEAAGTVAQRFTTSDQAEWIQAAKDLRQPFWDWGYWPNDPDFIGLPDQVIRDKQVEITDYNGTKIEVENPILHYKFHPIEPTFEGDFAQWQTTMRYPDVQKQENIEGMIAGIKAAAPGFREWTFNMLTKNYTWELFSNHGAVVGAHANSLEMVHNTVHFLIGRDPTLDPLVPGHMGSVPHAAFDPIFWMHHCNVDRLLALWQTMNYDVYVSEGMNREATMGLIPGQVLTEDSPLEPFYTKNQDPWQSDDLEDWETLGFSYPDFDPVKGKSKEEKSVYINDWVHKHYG

B16-F10 melanoma cells [2] = assay: Total melanin content assay; format: cell-based, Mus musculus (mouse); details: for activity at 15 µM / activity at 30 µM: B16-F10, read-out: % Melanin Content; for activity at 15 µM / activity at 30 µM / % Melanin Content: 72 h, relative to control
Protocol: Mus musculus (mouse) melanoma cell line, B16-F10 (ATCC® Number: CRL-6475™, Manassas, VA, USA), was cultured in complete Dulbecco′s Modified Eagle′s Medium (DMEM, phenol red-free medium) containing 10% fetal bovine serum, 25 mM glucose, 4 mM L-glutamine, 1 mM sodium pyruvate, 10 μg/mL penicillin, and 10 μg/mL streptomycin, at 37 °C, with 5% carbon dioxide (CO2) in a humidified atmosphere.
The total melanin content, produced both extracellularly and intracellularly, was determined as follows: B16-F10 cells were seeded onto a 24-well plate at a concentration of 50,000 cells/0.5 mL/well and were incubated for 24 h, followed by treatment with either the test compounds or the control (0.5% DMSO), and then incubated for 72 h. For extraction, the total produced melanin and 0.5 mL of 2 N NaOH containing 20% DMSO were added directly to the cell culture medium, mixed by pipetting and then incubated at room temperature for 1 h. The lysed cell extract was centrifuged at 13,000× g for 5 min. Finally, the supernatant was transferred to a 96-well plate and the relative melanin content was detected at 405 nm using a micro plate reader. Kojic acid and oxyresveratrol were used as positive controls.

B16-F10 melanoma cells [3] = assay: Cell viability assay (PrestoBlue resazurin); format: cell-based, Mus musculus (mouse);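 note: mouse B16-F10 melanoma cells exposed to test samples for 72 h, with viability read as fluorescence of resorufin formed when living cells reduce PrestoBlue resazurin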
[4] = Cell viability assay (PrestoBlue resazurin); format: cell-based, Mus musculus (mouse); details: mouse, 72 h, relative to control, read-out: % Cell Viability;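 note: mouse B16-F10 melanoma cells exposed to test samples for 72 h, with viability read as fluorescence of resorufin formed when living cells reduce PrestoBlue resazurin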
murine tyrosinase = molecular target: T1, murine tyrosinase (Mus musculus, UniProt P11344); assay: Murine tyrosinase inhibitory assay (o-diphenolase activity, crude enzyme from B16-F10 melanoma cells); format: biochemical; details: 200 μM, L-DOPA substrate;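 note: crude tyrosinase taken from lysed, dialyzed B16-F10 cell extract, with the inhibition reaction incubated for 2 h at 37 °C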
T1 construct: The cells were lysed by vortex and incubated at 4 °C for 1 h to solubilize the tyrosinase enzyme; endogenous in cells; host or cells: B16-F10 melanoma cells (Triton X-100 lysate, dialyzed)
T1 sequence (P11344 19-533): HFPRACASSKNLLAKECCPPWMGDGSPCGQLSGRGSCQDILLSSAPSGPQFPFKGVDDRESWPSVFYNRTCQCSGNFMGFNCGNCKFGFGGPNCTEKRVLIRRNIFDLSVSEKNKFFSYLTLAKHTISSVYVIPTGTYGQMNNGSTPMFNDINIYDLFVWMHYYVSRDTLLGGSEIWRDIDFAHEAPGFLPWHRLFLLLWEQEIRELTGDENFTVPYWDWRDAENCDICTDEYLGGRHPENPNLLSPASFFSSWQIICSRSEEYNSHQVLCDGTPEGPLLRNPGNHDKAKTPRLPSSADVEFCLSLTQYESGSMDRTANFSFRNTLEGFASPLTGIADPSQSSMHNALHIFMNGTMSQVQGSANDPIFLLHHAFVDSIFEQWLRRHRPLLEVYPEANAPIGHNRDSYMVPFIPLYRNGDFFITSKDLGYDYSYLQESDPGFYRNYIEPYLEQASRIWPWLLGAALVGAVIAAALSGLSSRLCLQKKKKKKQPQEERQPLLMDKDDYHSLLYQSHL

mushroom tyrosinase [5] = details: cited from earlier work
[6] = system: human melanoma cells (MMV II); design: method as in PMID 25248426; details: cited from earlier work
[7] = system: murine B16-F10 melanoma cells; design: method as in PMID 17873839, PMID 14717847, PMID 16794334, PMID 26656314; details: cited from earlier work
tyrosinase = system: tyrosinase; design: method as in PMID 17295516; details: cited from earlier work
[8] = system: murine melan-a melanocytes; design: method as in PMID 19182387; details: cited from earlier work
[9] = 30 μM, 72 h, relative to control
[10] = read-out: Murine Tyrosinase Inhibition, % (at 200 μM)
[11] = read-out: monophenolase activity of mushroom tyrosinase IC50

inhibition at 200 µM (mushroom tyrosinase [1]; 200 μM, L-DOPA substrate): 84.6 ± 0.6%
inhibition at 200 µM (murine tyrosinase; [10]): 29.2 ± 2.9%
Molecule: COc1cc2c(cc1O)[C@@H]1COc3cc(O)ccc3[C@@H]1O2 [Compound 27, (6aR,11aR)-3,8-Dihydroxy-9-methoxy pterocarpan]
effect on melanin content (in words, Figure 1) (B16-F10 melanoma cells [2]; 30 μM): inhibitory effect of melanogenesis
inhibition at 15 µM (B16-F10 melanoma cells [2]; Mus musculus, B16-F10, 15 μM, read-out: inhibition of melanogenesis): 59%
activity at 15 µM (B16-F10 melanoma cells [2]; Mus musculus, 15 μM): 41.9 ± 0.4%
activity at 30 µM (B16-F10 melanoma cells [2]; Mus musculus, 30 μM): 53.5 ± 0.4%
toxicity to B16-F10 cells (in words) (B16-F10 melanoma cells [3]; 15 μM): no toxicity
% Cell Viability (B16-F10 melanoma cells [3]; [9]): 14.5 ± 0.9%
viability at 72 h, 15 µM ([4]; B16-F10 melanoma cells): 106 ± 4.9%
viability at 72 h, 30 µM ([4]; B16-F10 melanoma cells): 14%

Molecule: O=c1c(-c2ccc(O)cc2)coc2cc(O)ccc12 [daidzein, 7,4′-dihydroxyisoflavone]
IC50 (mushroom tyrosinase [5]; [11]): 264 µM

Molecule: O=c1cc(-c2ccccc2)oc2cc(O)cc(O)c12 [chrysin]
effect on melanogenesis (in words) [6]: melanogenesis-promoting actions

behaviour as substrate of mushroom tyrosinase (in words) (mushroom tyrosinase [1]; pre-incubation with enzyme in absence of L-DOPA, coloured product at 475 nm): chromogenic substrate analogs
inhibition at 200 µM (murine tyrosinase; [10]): 9.9 ± 3.1%
Molecule: O=c1c(-c2ccc(O)cc2)coc2cc(O)cc(O)c12 [Compound 4, Genistein]
effect on melanogenesis (in words) [6]: melanogenesis-promoting actions
effect on melanin content (in words, Figure 1) (B16-F10 melanoma cells [2]; 30 μM): increased the melanin content
activity at 15 µM (B16-F10 melanoma cells [2]; Mus musculus, 15 μM): 165.1 ± 1.6%
activity at 30 µM (B16-F10 melanoma cells [2]; Mus musculus, 30 μM): 192 ± 13.9%
viability at 72 h, 15 µM [4]: 128 ± 3.5%
viability at 72 h, 30 µM [4]: 93.8 ± 5.7%
IC50 (mushroom tyrosinase [5]; [11]): 822 µM

inhibition at 500 µM (mushroom tyrosinase [1]; 500 μM, L-DOPA substrate): 13%
inhibition at 200 µM (murine tyrosinase; [10]): 9.5 ± 1.6%
Molecule: COc1ccc([C@H]2COc3cc(O)ccc3C2=O)c(OC)c1 [Compound 14, (3S)-Sativanone]
activity at 15 µM (B16-F10 melanoma cells [2]; Mus musculus, 15 μM): 124 ± 4.3%
activity at 30 µM (B16-F10 melanoma cells [2]; Mus musculus, 30 μM): 128 ± 6%
% Cell Viability (B16-F10 melanoma cells [3]; [9]): 64.3 ± 23.7%
viability at 72 h, 15 µM ([4]; B16-F10 melanoma cells): 107 ± 10.6%
viability at 72 h, 30 µM ([4]; B16-F10 melanoma cells): 60%

Molecule: O=c1cc(-c2ccc(O)c(O)c2)oc2cc(O)cc(O)c12 [luteolin]
effect on melanogenesis (in words) [6]: melanogenesis-promoting actions

Molecule: O=c1c(O)c(-c2ccc(O)c(O)c2)oc2cc(O)cc(O)c12 [quercetin]
effect on melanogenesis (in words) [6]: melanogenesis-promoting actions
effect on melanogenesis (in words) [7]: stimulate melanogenesis

Molecule: O=c1c(-c2ccc(O)cc2)coc2cc(O)c(O)cc12 [6,7,4′-trihydroxyisoflavone]
IC50 (mushroom tyrosinase [5]; [11]): 9.2 µM

inhibition at 200 µM (mushroom tyrosinase [1]; 200 μM, L-DOPA substrate): 72.7 ± 2.2%
inhibition at 200 µM (murine tyrosinase; [10]): 10.1 ± 3%
Molecule: COc1cc(O)c(-c2coc3cc(O)cc(O)c3c2=O)cc1O [Compound 5, Khrinone B]
activity at 15 µM (B16-F10 melanoma cells [2]; Mus musculus, 15 μM): 84.1 ± 5.3%
activity at 30 µM (B16-F10 melanoma cells [2]; Mus musculus, 30 μM): 34.7 ± 12.3%
% Cell Viability (B16-F10 melanoma cells [3]; [9]): 62.3 ± 15.1%
viability at 72 h, 15 µM ([4]; B16-F10 melanoma cells): 95.1 ± 5.4%
viability at 72 h, 30 µM ([4]; B16-F10 melanoma cells): 60%

Molecule: COc1cc(O)c2c(=O)c(O)c(-c3ccc(O)c(O)c3)oc2c1 [rhamnetin]
effect on melanogenesis (in words) [6]: melanogenesis-promoting actions

Molecule: O=c1c(-c2ccc(O)cc2)coc2c(O)c(O)cc(O)c12 [5,7,8,4′-tetrahydroxyisoflavone]
inhibition of monophenolase and diphenolase activities of tyrosinase (in words) (tyrosinase): irreversibly inhibit

inhibition at 200 µM (mushroom tyrosinase [1]; 200 μM, L-DOPA substrate): 64.1 ± 1.3%
inhibition at 200 µM (murine tyrosinase; [10]): 11.4 ± 2.5%
Molecule: COc1ccc(C2COc3c(ccc(O)c3OC)C2)c(O)c1O [Compound 21, (3R,S)-3′-Hydroxy-8-methoxy vestitol]
activity at 15 µM (B16-F10 melanoma cells [2]; Mus musculus, 15 μM): 97 ± 6.3%
activity at 30 µM (B16-F10 melanoma cells [2]; Mus musculus, 30 μM): 36.3 ± 0.1%
% Cell Viability (B16-F10 melanoma cells [3]; [9]): 62.4 ± 3.2%
viability at 72 h, 15 µM ([4]; B16-F10 melanoma cells): 102.9 ± 1%
viability at 72 h, 30 µM ([4]; B16-F10 melanoma cells): 60%

Molecule: Alpinetin [Compound 26]
Mushroom Tyrosinase Inhibition % Inhibition (at 200 μM) (mushroom tyrosinase [1]; 200 μM, L-DOPA substrate): 36.9 ± 0.5%
IC50 (mushroom tyrosinase [1]; L-DOPA substrate, read-out: Mushroom Tyrosinase Inhibition IC50): 450 ± 48.5 µM
% Melanin Content (B16-F10 melanoma cells [2]; 15 μM): 89.7 ± 0.4%
% Melanin Content (B16-F10 melanoma cells [2]; 30 μM): 92.3 ± 1.6%
% Cell Viability (B16-F10 melanoma cells [3]; 15 μM): 77.0 ± 12.7%
% Cell Viability (B16-F10 melanoma cells [3]; 30 μM): 77.1 ± 10.2%
Murine Tyrosinase Inhibition, % (at 200 μM), symbol (murine tyrosinase): - (no inhibition at 200 μM)

Molecule: COc1cc2c(=O)c(-c3ccc(O)cc3)coc2cc1O [glycitein, 6-methoxy-7,4′-dihydroxyisoflavone]
IC50 (mushroom tyrosinase [5]; [11]): 237 µM

Molecule: O=c1c(-c2ccc(O)cc2)coc2c(O)c(O)ccc12 [7,8,4′-trihydroxyisoflavone]
inhibition of monophenolase and diphenolase activities of tyrosinase (in words) (tyrosinase): irreversibly inhibit

Molecule: O=c1c(O)c(-c2ccc(O)cc2)oc2cc(O)cc(O)c12 [kaempferol]
effect on melanogenesis (in words) [6]: melanogenesis-promoting actions

Molecule: O=C1C[C@@H](c2ccc(O)cc2)Oc2cc(O)cc(O)c21 [naringenin]
effect on melanogenesis (in words) [7]: stimulate melanogenesis

Molecule: COc1ccc(-c2coc3cc(O)ccc3c2=O)cc1O [Compound 2, Calycosin]
inhibitory activity on mushroom tyrosinase (in words) (mushroom tyrosinase [1]; o-diphenolase, L-DOPA substrate): did not show inhibitory activity
inhibition at 300 µM (mushroom tyrosinase [1]; read-out: Mushroom Tyrosinase Inhibition % Inhibition (at 300 μM)): 0%
activity at 15 µM (B16-F10 melanoma cells [2]; Mus musculus, 15 μM): 143 ± 8.2%
activity at 30 µM (B16-F10 melanoma cells [2]; Mus musculus, 30 μM): 197 ± 6.4%
viability at 72 h, 15 µM ([4]; B16-F10 melanoma cells): 99.1 ± 9.2%
viability at 72 h, 30 µM ([4]; B16-F10 melanoma cells): 101 ± 1.9%
effect on melanin biosynthesis (in words) [8]: reduced melanin biosynthesis
inhibition at 200 µM (murine tyrosinase; read-out: Murine Tyrosinase Inhibition, % (at 200 μM), symbol): < 0%
IC50 (mushroom tyrosinase [5]; read-out: monophenolase inhibition of mushroom tyrosinase IC50): 38.4 µM

Molecule: O=c1c(O)c(-c2ccc(O)c(O)c2)oc2cc(O)ccc12 [fisetin]
effect on melanogenesis (in words) [6]: melanogenesis-promoting actions
